Values of other authors in patent publication US9403784B1, “Fumarate compounds, pharmaceutical compositions thereof, and methods of use” (priority 2015, dated 2016).

aqueous solubility: poor aqueous solubility
Structure (SMILES): COC(=O)/C=C/C(=O)OC [DMF, dimethylfumarate]
